# Source: the supplement of paper PMC6045584
# ± gives the standard deviation of the averaged measurements.
# How the values were obtained:
# SAPACITABINE = compound: CCCCCCCCCCCCCCCC(=O)Nc1ccn([C@@H]2O[C@H](CO)[C@@H](O)[C@@H]2C#N)c(=O)n1 [SAPACITABINE]; experiment: surviving fraction relative to DMSO-only wells; higher = less growth inhibition; conditions: exposure time: 5 days
# How it was run: (§1)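 Tumour cell lines were grown to log phase and seeded at 250–500 cells per well in 384-well plates. They were exposed continuously to inhibitors at 0.5, 1, 5, 10, 50, 100, 500 and 1000 nM for five days, beginning 24 hours after seeding. Surviving fraction is CellTiter-Glo luminescence normalised to the median of DMSO-only wells.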
# TIOGUANINE = compound: Nc1nc2[nH]cnc2c(=S)[nH]1 [TIOGUANINE]; experiment: as above; conditions: exposure time: 5 days
# How it was run: as §1
Test System,surviving fraction (SAPACITABINE; 0.5 nM),surviving fraction (SAPACITABINE; 1 nM),surviving fraction (SAPACITABINE; 5 nM),surviving fraction (SAPACITABINE; 10 nM),surviving fraction (SAPACITABINE; 50 nM),surviving fraction (SAPACITABINE; 100 nM),surviving fraction (SAPACITABINE; 500 nM),surviving fraction (SAPACITABINE; 1000 nM),surviving fraction (TIOGUANINE; 0.5 nM),surviving fraction (TIOGUANINE; 1 nM),surviving fraction (TIOGUANINE; 5 nM),surviving fraction (TIOGUANINE; 10 nM),surviving fraction (TIOGUANINE; 50 nM),surviving fraction (TIOGUANINE; 100 nM),surviving fraction (TIOGUANINE; 500 nM),surviving fraction (TIOGUANINE; 1000 nM)
MG63 BONE,0.903 ± 0.027,0.898 ± 0.027,0.943 ± 0.021,0.9 ± 0.031,0.601 ± 0.014,0.357 ± 0.013,0.123 ± 0.019,0.217 ± 0.013,0.974 ± 0.035,0.97 ± 0.015,1.01 ± 0.014,0.991 ± 0.007,1.02 ± 0.026,1.03 ± 0.026,0.989 ± 0.0069,0.958 ± 0.03
JIMT1 BREAST,0.862 ± 0.018,0.8617 ± 0.0045,0.899 ± 0.032,0.87 ± 0.025,0.966 ± 0.046,0.859 ± 0.04,0.632 ± 0.015,0.558 ± 0.032,0.966 ± 0.018,0.975 ± 0.023,0.984 ± 0.034,0.9947 ± 0.0086,1.05 ± 0.015,1.03 ± 0.025,0.9495 ± 0.0077,0.912 ± 0.0067
HT1080 SOFT TISSUE,1 ± 0.028,1.01 ± 0.029,1.02 ± 0.053,0.935 ± 0.053,0.591 ± 0.025,0.434 ± 0.012,0.314 ± 0.012,0.271 ± 0.0047,1 ± 0.012,0.989 ± 0.026,0.982 ± 0.016,1.04 ± 0.016,1.02 ± 0.041,0.974 ± 0.022,0.81 ± 0.013,0.594 ± 0.036
MDAMB231 BREAST,0.91 ± 0.016,0.919 ± 0.022,0.936 ± 0.031,0.927 ± 0.034,0.936 ± 0.043,0.882 ± 0.053,0.648 ± 0.03,0.516 ± 0.019,0.988 ± 0.027,0.994 ± 0.021,1.01 ± 0.027,0.994 ± 0.028,1.01 ± 0.035,1.01 ± 0.035,0.74 ± 0.039,0.573 ± 0.016
HU09 BONE,0.854 ± 0.062,0.812 ± 0.027,0.97 ± 0.061,0.882 ± 0.018,0.857 ± 0.021,0.537 ± 0.042,0.0813 ± 0.0049,0.0557 ± 0.0035,0.964 ± 0.059,1.05 ± 0.071,1.05 ± 0.041,1.1 ± 0.074,1.04 ± 0.062,1.09 ± 0.089,1.06 ± 0.015,0.927 ± 0.11
SIHA CERVIX,0.907 ± 0.068,0.863 ± 0.03,0.895 ± 0.044,0.91 ± 0.021,1.02 ± 0.026,0.972 ± 0.11,0.739 ± 0.046,0.641 ± 0.035,0.848 ± 0.07,0.858 ± 0.097,0.994 ± 0.044,0.967 ± 0.084,0.97 ± 0.043,0.987 ± 0.078,0.817 ± 0.029,0.856 ± 0.029
LM7 BONE,0.703 ± 0.044,0.708 ± 0.036,0.761 ± 0.015,0.641 ± 0.077,0.599 ± 0.037,0.4143 ± 0.0032,0.191 ± 0.036,0.162 ± 0.021,0.966 ± 0.054,0.984 ± 0.068,1.02 ± 0.064,1.05 ± 0.068,1.08 ± 0.058,1.07 ± 0.039,0.965 ± 0.1,0.939 ± 0.13
HCC1954 BREAST,0.436 ± 0.047,0.437 ± 0.016,0.445 ± 0.058,0.559 ± 0.1,0.464 ± 0.037,0.371 ± 0.014,0.425 ± 0.0067,0.343 ± 0.035,0.867 ± 0.18,0.986 ± 0.24,1.08 ± 0.075,0.96 ± 0.1,0.997 ± 0.18,0.911 ± 0.05,0.969 ± 0.054,0.871 ± 0.051
VP229 BREAST,0.763 ± 0.17,0.668 ± 0.054,0.686 ± 0.11,0.643 ± 0.084,1 ± 0.14,0.835 ± 0.12,0.69 ± 0.099,0.669 ± 0.083,1.07 ± 0.089,1.06 ± 0.053,1.03 ± 0.031,1.04 ± 0.057,1.11 ± 0.14,1.1 ± 0.012,1.14 ± 0.17,1.08 ± 0.15
VCAP PROSTATE,0.892 ± 0.048,0.935 ± 0.07,0.959 ± 0.085,0.91 ± 0.055,1.06 ± 0.038,1.03 ± 0.1,0.95 ± 0.015,0.791 ± 0.1,1.04 ± 0.18,0.99 ± 0.11,1.11 ± 0.13,1.11 ± 0.12,1.14 ± 0.094,1.08 ± 0.11,0.973 ± 0.082,1.02 ± 0.15
OSHN BONE,0.902 ± 0.034,0.917 ± 0.024,0.92 ± 0.013,0.891 ± 0.014,0.998 ± 0.02,0.928 ± 0.011,0.345 ± 0.032,0.158 ± 0.011,1.01 ± 0.037,1.02 ± 0.026,1.01 ± 0.035,1.02 ± 0.034,1.02 ± 0.048,1.04 ± 0.038,1.01 ± 0.039,0.9787 ± 0.007
NCIH441 LUNG,1.042 ± 0.009,0.975 ± 0.077,1.02 ± 0.036,0.913 ± 0.034,0.53 ± 0.023,0.363 ± 0.051,0.34 ± 0.025,0.312 ± 0.023,0.963 ± 0.053,1.03 ± 0.082,0.971 ± 0.032,0.955 ± 0.079,1.03 ± 0.024,1.02 ± 0.017,1.01 ± 0.091,0.976 ± 0.058
SNU475 LIVER,0.888 ± 0.063,0.726 ± 0.057,0.83 ± 0.03,0.365 ± 0.03,0.962 ± 0.057,0.745 ± 0.025,0.573 ± 0.016,0.291 ± 0.015,0.949 ± 0.025,0.963 ± 0.02,0.961 ± 0.036,0.957 ± 0.028,0.966 ± 0.099,0.992 ± 0.025,0.899 ± 0.054,0.916 ± 0.012
SUM44 BREAST,0.781 ± 0.19,0.773 ± 0.18,0.823 ± 0.14,0.827 ± 0.1,0.902 ± 0.12,0.686 ± 0.13,0.68 ± 0.093,0.611 ± 0.07,0.946 ± 0.03,0.992 ± 0.046,1.04 ± 0.035,1.04 ± 0.028,1.03 ± 0.011,1.09 ± 0.086,0.97 ± 0.091,1.055 ± 0.0085
HMT3552 BREAST,0.838 ± 0.009,0.825 ± 0.075,0.943 ± 0.027,0.887 ± 0.053,1.141 ± 0.0031,1 ± 0.093,0.418 ± 0.019,0.303 ± 0.024,1.11,1.06,1.05,1.04,1.05,1.12,0.591,0.38
NY BONE,0.923 ± 0.043,0.872 ± 0.042,0.911 ± 0.024,0.812 ± 0.026,0.368 ± 0.02,0.262 ± 0.011,0.133 ± 0.0087,0.147 ± 0.0076,0.936 ± 0.013,0.955 ± 0.017,1.01 ± 0.022,0.972 ± 0.015,1.02 ± 0.049,1.01 ± 0.029,0.946 ± 0.025,0.902 ± 0.039
NOS1 BONE,0.853 ± 0.16,0.774 ± 0.081,0.938 ± 0.16,0.863 ± 0.062,0.968 ± 0.12,0.973 ± 0.13,0.811 ± 0.059,0.764 ± 0.14,1.12 ± 0.037,1.14 ± 0.028,1.15 ± 0.093,1.17 ± 0.075,1.23 ± 0.1,1.19 ± 0.058,1.06 ± 0.099,1.05 ± 0.065
MDAMB361 BREAST,0.711 ± 0.096,0.624 ± 0.029,0.662 ± 0.06,0.648 ± 0.069,0.868 ± 0.097,0.771 ± 0.1,0.908 ± 0.093,0.872 ± 0.041,0.914 ± 0.011,0.845 ± 0.011,0.881 ± 0.0085,0.884 ± 0.062,0.846 ± 0.018,0.955 ± 0.054,0.882 ± 0.067,0.963 ± 0.043
HOS BONE,0.899 ± 0.01,0.912 ± 0.0076,0.927 ± 0.018,0.911 ± 0.024,0.975 ± 0.041,0.831 ± 0.026,0.209 ± 0.035,0.224 ± 0.007,1 ± 0.011,0.9977 ± 0.0091,1.004 ± 0.0085,1.02 ± 0.032,1.05 ± 0.033,1.038 ± 0.0061,0.75 ± 0.037,0.612 ± 0.016
COLO320DM LARGE INTESTINE,1.01 ± 0.054,0.88 ± 0.044,1.08 ± 0.043,0.386 ± 0.015,0.887 ± 0.057,0.689 ± 0.0072,0.597 ± 0.024,0.185 ± 0.0083,1.13 ± 0.03,1.1 ± 0.056,1.003 ± 0.0076,1.09 ± 0.067,1.03 ± 0.019,1.09 ± 0.049,1.078 ± 0.0053,1.04 ± 0.049
